# In ChEMBL document CHEMBL1177708, “Design, synthesis, and biological evaluation of a novel class of gamma-secretase modulators with PPARgamma activity” (J Med Chem, 2010):
# Calls of active or inactive are those of the source. The calls are words filed in the database; no cut-off is given here.
# Legend:
# [1] = molecular target: T1, Peroxisome proliferator-activated receptor gamma (Homo sapiens, UniProt P37231); assay: Agonist activity at human PPARgamma-LBD expressed in COS7 cells co-transfected with Gal4 by luciferase based transactivation assay; format: functional, cell-based, COS-7
# T1 sequence (P37231 whole entry): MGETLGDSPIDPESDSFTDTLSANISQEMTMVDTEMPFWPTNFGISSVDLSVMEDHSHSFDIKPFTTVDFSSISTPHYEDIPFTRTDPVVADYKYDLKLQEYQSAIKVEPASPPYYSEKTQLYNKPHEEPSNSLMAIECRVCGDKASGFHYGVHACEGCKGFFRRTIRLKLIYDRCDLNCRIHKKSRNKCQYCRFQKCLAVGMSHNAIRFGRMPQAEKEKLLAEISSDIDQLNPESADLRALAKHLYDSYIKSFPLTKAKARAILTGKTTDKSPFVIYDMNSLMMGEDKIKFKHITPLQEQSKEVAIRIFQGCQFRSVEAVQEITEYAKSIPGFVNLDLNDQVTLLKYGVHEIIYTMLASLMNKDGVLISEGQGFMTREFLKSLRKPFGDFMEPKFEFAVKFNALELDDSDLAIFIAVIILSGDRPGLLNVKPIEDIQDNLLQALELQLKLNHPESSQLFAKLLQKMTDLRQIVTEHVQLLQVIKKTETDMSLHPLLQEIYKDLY
# [2] = molecular target: T2, Prostaglandin G/H synthase 2 (Homo sapiens) (UniProt P35354); assay: Inhibition of human recombinant COX2 assessed as residual activity at 10 uM after 5 mins
# T2 sequence (whole entry): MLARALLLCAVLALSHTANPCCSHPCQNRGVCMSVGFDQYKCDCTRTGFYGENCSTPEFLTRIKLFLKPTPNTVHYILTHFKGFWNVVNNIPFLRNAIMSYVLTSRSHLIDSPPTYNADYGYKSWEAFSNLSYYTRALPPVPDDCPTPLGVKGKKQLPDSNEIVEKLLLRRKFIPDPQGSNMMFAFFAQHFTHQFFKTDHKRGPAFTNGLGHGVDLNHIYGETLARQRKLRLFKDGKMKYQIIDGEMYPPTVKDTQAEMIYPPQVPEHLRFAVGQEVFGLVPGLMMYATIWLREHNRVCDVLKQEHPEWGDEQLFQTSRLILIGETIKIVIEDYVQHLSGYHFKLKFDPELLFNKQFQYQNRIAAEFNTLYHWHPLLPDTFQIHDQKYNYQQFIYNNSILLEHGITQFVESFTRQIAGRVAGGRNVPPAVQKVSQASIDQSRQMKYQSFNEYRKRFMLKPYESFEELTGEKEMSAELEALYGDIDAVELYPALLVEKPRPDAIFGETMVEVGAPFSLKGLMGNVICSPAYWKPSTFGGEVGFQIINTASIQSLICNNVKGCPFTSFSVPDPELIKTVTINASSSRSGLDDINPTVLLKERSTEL
# [3] = molecular target: T3, Peroxisome proliferator-activated receptor delta (Homo sapiens) (UniProt Q03181); assay: Agonist activity at human PPARdelta-LBD expressed in COS7 cells co-transfected with Gal4 at 10 uM by luciferase based transactivation assay; format: functional, cell-based; conditions: COS-7
# T3 sequence (whole entry): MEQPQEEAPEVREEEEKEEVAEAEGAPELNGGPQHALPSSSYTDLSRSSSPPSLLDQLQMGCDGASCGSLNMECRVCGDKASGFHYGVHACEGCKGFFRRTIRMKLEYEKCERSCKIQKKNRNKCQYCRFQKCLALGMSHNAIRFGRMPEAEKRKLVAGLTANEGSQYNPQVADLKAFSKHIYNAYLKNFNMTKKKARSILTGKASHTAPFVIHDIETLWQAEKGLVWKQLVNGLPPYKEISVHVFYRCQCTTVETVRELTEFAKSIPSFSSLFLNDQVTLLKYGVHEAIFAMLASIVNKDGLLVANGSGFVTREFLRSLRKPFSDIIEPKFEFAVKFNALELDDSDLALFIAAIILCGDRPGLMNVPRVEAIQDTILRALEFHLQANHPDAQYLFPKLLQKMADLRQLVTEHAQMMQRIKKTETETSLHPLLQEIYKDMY
# [4] = molecular target: T4, Peroxisome proliferator-activated receptor alpha (Homo sapiens) (UniProt Q07869); assay: Agonist activity at human PPARalpha-LBD expressed in COS7 cells co-transfected with Gal4 at 10 uM by luciferase based transactivation assay; format: functional, cell-based; conditions: COS-7
# T4 sequence (whole entry): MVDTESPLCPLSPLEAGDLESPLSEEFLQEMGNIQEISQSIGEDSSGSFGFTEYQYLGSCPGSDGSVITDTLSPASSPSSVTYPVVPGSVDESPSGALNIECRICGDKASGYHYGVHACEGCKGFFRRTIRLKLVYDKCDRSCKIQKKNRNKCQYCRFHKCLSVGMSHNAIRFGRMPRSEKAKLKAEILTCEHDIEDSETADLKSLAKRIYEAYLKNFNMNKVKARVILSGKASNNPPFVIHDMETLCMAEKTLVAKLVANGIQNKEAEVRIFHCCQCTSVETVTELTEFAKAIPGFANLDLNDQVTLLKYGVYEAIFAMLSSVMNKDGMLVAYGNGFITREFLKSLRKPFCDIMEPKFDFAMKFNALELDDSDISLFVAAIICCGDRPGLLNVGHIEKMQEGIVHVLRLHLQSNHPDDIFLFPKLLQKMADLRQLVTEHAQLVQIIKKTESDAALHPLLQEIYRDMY
# [5] = molecular target: T5, Peroxisome proliferator-activated receptor gamma (Homo sapiens) (UniProt P37231); assay: Agonist activity at human PPARgamma-LBD expressed in COS7 cells co-transfected with Gal4 by luciferase based transactivation assay relative to pioglitazone; format: functional, cell-based; conditions: COS-7
# T5 sequence (whole entry): T1 sequence (P37231 whole entry)
# cells = conditions: CHO, 24 h
# Description: Modulation of gamma-secretase-mediated cleavage of human APP expressed in CHO cells with human presenilin-1 assessed as inhibition of amyloid beta42 production after 24 hrs by ELISA
# [6] = molecular target: T6, Prostaglandin G/H synthase 1 (Ovis aries) (UniProt P05979); assay: Inhibition of ovine COX1 assessed as residual activity at 10 uM after 5 mins
# T6 sequence (whole entry): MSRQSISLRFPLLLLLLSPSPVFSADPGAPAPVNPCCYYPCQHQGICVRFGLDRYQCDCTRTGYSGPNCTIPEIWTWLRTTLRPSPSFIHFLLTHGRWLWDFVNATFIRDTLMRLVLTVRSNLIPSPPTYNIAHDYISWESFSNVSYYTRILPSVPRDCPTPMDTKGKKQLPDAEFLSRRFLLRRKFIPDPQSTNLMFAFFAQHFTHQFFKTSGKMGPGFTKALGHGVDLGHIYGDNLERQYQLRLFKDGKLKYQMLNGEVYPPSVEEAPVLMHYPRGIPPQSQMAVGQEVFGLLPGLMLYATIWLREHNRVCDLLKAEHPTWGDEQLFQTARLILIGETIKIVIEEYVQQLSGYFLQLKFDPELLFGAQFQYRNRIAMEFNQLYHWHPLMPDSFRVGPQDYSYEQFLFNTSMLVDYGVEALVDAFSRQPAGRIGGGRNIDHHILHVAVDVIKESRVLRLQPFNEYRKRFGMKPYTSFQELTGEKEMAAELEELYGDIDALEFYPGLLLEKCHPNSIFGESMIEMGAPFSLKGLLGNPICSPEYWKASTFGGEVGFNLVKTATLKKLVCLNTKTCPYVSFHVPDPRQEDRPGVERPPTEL
# CHO [7] = assay: Cytotoxicity against CHO cells at 60 uM after 24 hrs by Alamar blue assay; format: cell-based, Cricetulus griseus; conditions: chinese hamster
# [8] = Modulation of gamma-secretase-mediated cleavage of human APP expressed in CHO cells with human presenilin-1 assessed as activation of amyloid beta38 production after 24 hrs by ELISA; format: cell-based
# [9] = molecular target: T7, Prostaglandin G/H synthase 1 (Ovis aries, UniProt P05979)
# T7 sequence (P05979 whole entry): T6 sequence (whole entry)
# Description: Inhibition of ovine COX1 after 5 mins
# CHO [10] = assay: Modulation of gamma-secretase-mediated notch signaling expressed in CHO cells transfected with Gal4-DNA-binding/VP16 transactivation domain assessed as reduction of reporter activity at 5 to 40 uM after 24 hrs; format: cell-based
Structure (SMILES),EC50 [1],Activity [2],Activity [3],Activity [4],Emax [5],IC50 (cells),Activity [6],Activity (CHO [7]),EC50 [8],IC50 [9],Activity (CHO [10])
CCCCC(Sc1nc(OCCCCc2ccccc2)cc(OCCCCc2ccccc2)n1)C(=O)O (configuration not stated),10 µM,53.9%,inactive,inactive,55%,22.9 µM,78.8%,Non-toxic,16.4 µM,–,–
CC(C(=O)O)c1ccc2c(c1)[nH]c1ccc(Cl)cc12 (configuration not stated) [CARPROFEN],–,–,–,–,–,305 µM,–,–,–,13 µM,–
CCCCC(Sc1nc(OCCc2ccc(C#N)cc2)cc(OCCc2ccc(C#N)cc2)n1)C(=O)O (configuration not stated),7 µM,82.6%,inactive,inactive,65%,> 40 µM,88.8%,Non-toxic,–,–,–
COc1ccc2c(c1)c(CC(=O)O)c(C)n2C(=O)c1ccc(Cl)cc1 [INDOMETHACIN],–,–,–,–,–,25 µM,–,–,–,–,–
CCCCC(Sc1nc(OCCc2ccc(C)cc2)cc(OCCc2ccc(C)cc2)n1)C(=O)O (configuration not stated),7.5 µM,93.3%,inactive,inactive,63%,13 µM,57.2%,Non-toxic,6.4 µM,–,–
CCCCC(Sc1nc(OCCCc2ccccc2)cc(OCCCc2ccccc2)n1)C(=O)O (configuration not stated),8.9 µM,51.9%,inactive,inactive,71%,30.9 µM,78.8%,Non-toxic,16.4 µM,–,–
CCCC[C@H](Sc1nc(OCCc2ccccc2)cc(OCCc2ccccc2)n1)C(=O)O,10.4 µM,92.8%,inactive,inactive,62%,32.6 µM,83.5%,Non-toxic,13.5 µM,–,–
CCC(Sc1nc(OCCc2ccccc2)cc(OCCc2ccccc2)n1)C(=O)O (configuration not stated),6.1 µM,56.9%,inactive,inactive,57%,41.6 µM,84.6%,Non-toxic,31.1 µM,–,–
CSc1ccc(/C=C2/C(C)=C(CC(=O)O)c3cc(F)ccc32)cc1 [SULINDAC SULFIDE],–,–,–,–,–,34 µM,–,–,–,0.05 µM,–
CCCCC(Sc1nc(OCCc2ccccc2)cc(OCCc2ccccc2)n1)C(=O)O (configuration not stated),8.3 µM,90.9%,inactive,inactive,61%,22.8 µM,64.2%,Non-toxic,11.3 µM,18.7 µM,–
CCCCC(Sc1nc(OCCC2CC2)cc(OCCC2CC2)n1)C(=O)O (configuration not stated),4.3 µM,87.9%,inactive,inactive,79%,> 40 µM,97.7%,Non-toxic,24 µM,–,–
CCCCC(Sc1nc(OCCC(C)C)cc(OCCC(C)C)n1)C(=O)O (configuration not stated),11 µM,80.5%,inactive,inactive,69%,28.2 µM,72.4%,Non-toxic,10.9 µM,–,–
CCCCC(Sc1nc(OCCc2ccc(OC(F)(F)F)cc2)cc(OCCc2ccc(OC(F)(F)F)cc2)n1)C(=O)O (configuration not stated),10.3 µM,75.8%,inactive,inactive,115%,8.6 µM,73%,Non-toxic,5.5 µM,–,–
O=C(O)CSc1nc(OCCc2ccccc2)cc(OCCc2ccccc2)n1,3.7 µM,91.7%,inactive,inactive,111%,> 40 µM,91.8%,Non-toxic,> 40 µM,–,–
CCCCCCC(Sc1nc(OCCc2ccccc2)cc(OCCc2ccccc2)n1)C(=O)O (configuration not stated),8.8 µM,63.8%,inactive,inactive,59%,30.4 µM,61.8%,Non-toxic,24.2 µM,–,–
CCCCC(Sc1nc(OCCC2CCCC2)cc(OCCC2CCCC2)n1)C(=O)O (configuration not stated),–,84.7%,inactive,inactive,127%,17.2 µM,68.2%,Non-toxic,9 µM,–,–
CCCCC(Sc1nc(OCCC2CCCCC2)cc(OCCC2CCCCC2)n1)C(=O)O (configuration not stated),6.6 µM,49.5%,inactive,inactive,71%,5.1 µM,52.7%,Non-toxic,4.6 µM,13.4 µM,inactive
